Measurements from patent US9370521B2, “Targeting GLI proteins in human cancer by small molecules” (The Regents of the University of California, priority 2011, dated 2016).

How the values were obtained:
NSCLC A549 = assay: In vivo efficacy, Mouse Xenograft Model (lung cancer A549); conditions: 50 mg/kg i.p. daily for 14 days then another 7 days, tumors weighed day 43, vs control group, FIG. 3
Method: The administered compounds were tested in vivo in the mouse xenograft model bearing human cancer cells. Briefly, female athymic nude mice strain NCRNU-M (5-10 weeks old, 20-25 grams in weight; Taconic, Germantown, N.Y.) was maintained in pathogen-free conditions. Three human cancer cell lines: NSCLC A549, melanoma MelJuso, and mesothelioma MS-1 were used. Five or ten mice were used in each group and injected s.c. with 3×10^6 cancer cells in the dorsal area in a volume of 100 μl. After inoculation, human cancer cells were allowed to grow in mice for 10-13 days to become visible tumor nodules. Animals were then injected with a compound of the embodiments at a dose of 50 mg/kg body weight (1 mg/mouse per day). Vehicle alone was used as control. The compounds and controls were adjusted in 40 ul volume for i.p. injection in the abdomens of the mice. Injections were performed daily around the same time for 14 days. […] Tumor size was measured every three to four days, and tumor volumes were calculated using width (x) and length (y) (x^2y/2, where x<y). Throughout this period, general toxicity of the treatments was also monitored by measuring body weight of the mice. […]
In vivo efficacy study of Compounds 1 and 4 in Mouse Xenograft Model (NSCLC A549) was examined. […] 43 days after the initial tumor inoculation, tumors were dissected from the mice of each group and their weights were measured using a scale. […]

Wnt signaling pathway = assay: Quantitative real-time RT-PCR of Wnt pathway genes in xenograft tumors; assay type: in vivo, mouse; conditions: Melanoma tumor xenograft, compared to controls, FIG. 4
Method: (§1) Total RNA was isolated using Qiagen RNeasy Mini Kit (Valencia, Calif.). Hybridization probes and primers (Table 1) were purchased from Applied Biosystems (ABI, Foster City, Calif.). cDNA synthesis and Taqman® PCR were performed according to the manufactures' protocols. The gene expression was assayed in triplicate in ABI 7300 Real-time PCR System. Samples were normalized to their housekeeping gene GAPDH and then calculated by using 2^−dCt method.
To examine whether Compounds 1, 2, 4, and 6 suppressed tumor growth through inhibition of the Wnt signaling pathway in vivo, expression of the key components and direct target genes of the Wnt pathway (e.g. Wnt2, Axin2, EGFR, and Cyclin D1) were analyzed by quantitative real-time RT-PCR using total RNA isolated from the xenograft tumors. GAPDH served as a control. This RT-PCR analysis was performed using a “pooled” tumor from two randomly selected mice of each group with reasonable size tumors. […] The results are shown in FIG. 4, where C is control and V is vehicle.

melanoma MelJuso = assay: In vivo efficacy, Mouse Xenograft Model (melanoma MelJuso); conditions: 50 mg/kg i.p. daily for 14 days, FIG. 1; for Tumor growth after treatment: vs vehicle
Method: (§2) The administered compounds were tested in vivo in the mouse xenograft model bearing human cancer cells. Briefly, female athymic nude mice strain NCRNU-M (5-10 weeks old, 20-25 grams in weight; Taconic, Germantown, N.Y.) was maintained in pathogen-free conditions. Three human cancer cell lines: NSCLC A549, melanoma MelJuso, and mesothelioma MS-1 were used. Five or ten mice were used in each group and injected s.c. with 3×10^6 cancer cells in the dorsal area in a volume of 100 μl. After inoculation, human cancer cells were allowed to grow in mice for 10-13 days to become visible tumor nodules. Animals were then injected with a compound of the embodiments at a dose of 50 mg/kg body weight (1 mg/mouse per day). Vehicle alone was used as control. The compounds and controls were adjusted in 40 ul volume for i.p. injection in the abdomens of the mice. Injections were performed daily around the same time for 14 days. Tumors were allowed to grow for 1-2 additional weeks after completion of the compound treatments. Tumor size was measured every three to four days, and tumor volumes were calculated using width (x) and length (y) (x^2y/2, where x<y). Throughout this period, general toxicity of the treatments was also monitored by measuring body weight of the mice. Data was presented as mean values (±S.D.).
In vivo efficacy study of Compounds 1, 2, 4, and 6 were performed using a Mouse Xenograft Model (Melanoma MelJuso). Mice were injected s.c. with 3×10^6 cells in the dorsal area in a volume of 100 μl. 13 days after inoculation, the mice started receiving treatments with the administered compound at a dose of 50 mg/kg body weight daily for 14 days (n=10). Vehicle alone was used as control (n=10). The administered compounds and vehicle were adjusted in a volume of 40 μl for i.p. injection in the abdomens of the mice. Tumor size and tumor volumes were calculated as described above.

[1] = Preliminary in vivo toxicity: leukocyte population and body weight after in vivo treatment; parameters: species or system mouse; conditions: mice; for Changes of leukocyte population: at completion of the in vivo studies, FIG. 5; for Loss of body weight: during the course of drug administration, FIG. 6
Method: as §2
(§3) After the in vivo studies were completed, different organs were resected from mice. These organs included liver, lung, heart, kidney, intestines, ovary, brain, spleen, skin, and muscle. The specimens were fixed in 4% buffered formaldehyde, embedded in paraffin, sectioned, and histologically analyzed by hematoxylin and eosin (HE) staining. The HE stained slides were examined by a mouse pathologist for toxicity evidence from all the organs as compared with vehicle controls. In addition, leukocytes (WBC: white blood cell, NE: neutrophil, LY: lymphocyte, MO: monocyte, EO: eosinophil, BA: basophil) from each animal from all treatment groups were collected and leukocyte population was counted through a blood cell counter.
(§4) As preliminary in vivo toxicity study of Compounds 1, 2, 4, and 6, it was examined if there were changes of leukocyte population and loss of body weight in the mice after the treatment. At the completion of the in vivo studies as described herein, leukocytes (WBC: white blood cell, NE: neutrophil, LY: lymphocyte, MO: monocyte, EO: eosinophil, BA: basophil) from each animal from all treatment groups were collected and leukocyte population was counted through a blood cell counter. Body weights of control groups (n=10) and the treated group (n=10) were measured using a scale during the course of drug administration. […] In an additional toxicity study, effect of different doses of compounds 4 and 6 on the body weight of mice was examined. The compounds were i.p. injected in the abdomens at 3 different doses: 25, 50, and 100 mg/kg body weight to mice (3 mice per dosing group) for 6 consecutive days.

mesothelioma MS-1 = assay: In vivo efficacy, Mouse Xenograft Model (mesothelioma MS-1); conditions: MS-1 xenograft, 50 mg/kg i.p. daily for 14 days, vs control group, FIG. 2
Method: as §2, with “Data was presented as mean values (±S.D.).” left out
Model (Mesothelioma MS-1). […] Tumor sizes was measured twice weekly until the completion of the experiments. […]

[2] = system: Hedgehog signaling pathway; assay: Quantitative real-time RT-PCR of Hh pathway genes in xenograft tumors; assay type: in vivo, mouse; conditions: Melanoma tumor (MelJuso) xenograft, pooled tumor from two mice, FIG. 4
Method: as §1
To examine whether Compounds 1, 2, 4, and 6 suppressed tumor growth through inhibition of the Hedgehog signaling pathway in vivo, expression of the key components and direct target genes of the Hh pathway (e.g. Gli1, Gli2, Gli3, HHIP and Cyclin D1) were analyzed by quantitative real-time RT-PCR using total RNA isolated from the xenograft tumors. GAPDH served as a control. This RT-PCR analysis was performed using a “pooled” tumor from two randomly selected mice of each group with reasonable size tumors. […] The results are shown in FIG. 4, where C is control and V is vehicle.

[3] = Histological examination (H&E) of organs for toxicity; assay type: in vivo; conditions: mice, i.p. two doses daily for 6 days, FIGS. 8-11
From the text: as §3
To analyze toxicity of the Compounds 1, 2, 4, and 6 in vivo, each group (three mice) was i.p. injected with two doses of each Compound daily for 6 days, and then major mouse organs, such as liver, spleen, kidney, and heart were resected from the mice. The specimens will be fixed in 4% buffered formaldehyde, embedded in paraffin, sectioned and histologically analyzed by hematoxylin and eosin (H&E) staining.

human NSCLC cell lines = assay: Combination treatment, MTS cell proliferation assay, NSCLC cell lines; assay type: cell-based; conditions: lung cancer cells, 72 hours, Combination Index
From the text: (§5) Another assay for determining the number of viable cells in proliferation or cytotoxicity assays is the MTS assay, a colorimetric method. MTS assay reagents are commercially available (Promega Corp., Madison, Wis.). The reagent contains a tetrazolium compound [3-(4,5-dimethylthiazol-2-yl)-5-(3-carboxymethoxyphenyl)-2-(4-sulfophenyl)-2H-tetrazolium, inner salt; MTS] and an electron coupling reagent (phenazine ethosulfate; PES). PES has enhanced chemical stability, which allows it to be combined with MTS to form a stable solution. The MTS tetrazolium compound (Owen's reagent) is bioreduced by cells into a colored formazan product that is soluble in tissue culture medium. This conversion may be accomplished by NADPH or NADH produced by dehydrogenase enzymes in metabolically active cells. The quantity of formazan product as measured by the absorbance at 490 nm is directly proportional to the number of living cells in culture. Because the MTS formazan product is soluble in tissue culture medium, this assay requires fewer steps than procedures that use tetrazolium compounds such as MTT. The formazan product of MTT reduction is a crystalline precipitate that requires an additional step in the procedure to dissolve the crystals before recording absorbance readings at 570 nm.
(§6) Combination treatments of the Compounds with several chemotherapies: erlotinib (Tarceva®), PI3K inhibitor LY294002, TGFβ inhibitor SB431542, and pemetrexed (Alimta®) were performed in human NSCLC and MM cell lines (FIGS. 12-17). In all experiments, NSCLC and MM cell lines were treated with different doses of each compound or combination for 72 hours, and MTS assays were performed to determine the cell proliferations. Combination Index (CI), calculated by CalcuSyn software (Biosoft, Cambridge, UK), was applied to describe the effect of the combination effects of two compounds, where CI<1 indicates Synergism, CI=1 indicates Additive effects, and CI>1 indicates Antagonism. Student's t-tests were applied for statistical analysis.

[4] = system: human MM cell lines (mesothelioma cells); assay: Combination treatment, MTS cell proliferation assay, MM (mesothelioma) cell lines; assay type: cell-based; conditions: 72 hours, Combination Index
From the text: as §5, §6

[5] = Additional toxicity study: body weight at different doses; assay type: in vivo, mouse; conditions: mice, i.p. 25, 50 and 100 mg/kg for 6 consecutive days, FIG. 7
Method: Each dosing group contained 3 mice. The body weight of mice was measured using a scale. Results are the means±SD (error bars).
as §4

| SMILES | Tumor weight after treatment (NSCLC A549) | Expression of the key indicator of canonical Wnt activation in tumor (Wnt signaling pathway) | Tumor weight after treatment (melanoma MelJuso) | Tumor growth after treatment (melanoma MelJuso) | Changes of leukocyte population [1] | Loss of body weight [1] | Tumor weight after treatment (mesothelioma MS-1) | Hh signaling (expression of Gli1, Gli2, Gli3, HHIP, Cyclin D1) in tumor [2] | Toxicity in organs (liver, spleen, kidney, heart), H&E histology [3] | Combination effect with erlotinib (Tarceva) (human NSCLC cell lines; FIG. 12) | Combination effect with erlotinib (Tarceva) ([4]; FIG. 13) | Loss of body weight [5] | Combination effect with PI3K inhibitor LY294002 (human NSCLC cell lines; FIG. 14) | Combination effect with TGFβ inhibitor SB431542 (human NSCLC cell lines; FIG. 16) | Combination effect with PI3K inhibitor LY294002 ([4]; FIG. 15) | Combination effect with pemetrexed (Alimta) ([4]; FIG. 17) |
| --- | --- | --- | --- | --- | --- | --- | --- | --- | --- | --- | --- | --- | --- | --- | --- | --- |
| CC(C)(CO)CCCNC(=O)C1C(c2ccccc2)=NN(c2ccccc2)C1c1ccsc1 (stereo not drawn) [Compound 1, 1,3-diphenyl-5-thiophen-3-yl-4,5-dihydro-1H-pyrazole-4-carboxylic acid (5-hydroxy-4,4-dimethyl-pentyl)-amide] | significantly decreased | significantly down-regulated | significantly decreased | dramatically suppressed | No noticeable changes | No noticeable changes of leukocyte population or loss of the body weight | significantly decreased | inhibited | No noticeable toxicity |  |  |  |  |  |  |  |
| O=C(NCc1ccc(O)cc1)C1C(c2ccccc2)=NN(c2ccccc2)C1c1ccccc1 (stereo not drawn) [Compound 2, 1,3,5-triphenyl-4,5-dihydro-1H-pyrazole-4-carboxylic acid 4-hydroxy-benzylamide] |  | significantly down-regulated | significantly decreased | dramatically suppressed | No noticeable changes | No noticeable changes of leukocyte population or loss of the body weight |  | inhibited | No noticeable toxicity |  |  |  |  |  |  |  |
| CCCC1C(C(=O)NCCCC(C)(C)CO)C(c2ccc(F)cc2)=NN1c1ccccc1 (stereo not drawn) [Compound 4, 3-(4-fluoro-phenyl)-1-phenyl-5-propyl-4,5-dihydro-1H-pyrazole-4-carboxylic acid (5-hydroxy-4,4-dimethyl-pentyl)-amide] | significantly decreased | significantly down-regulated | significantly decreased | dramatically suppressed | No noticeable changes | No noticeable changes of leukocyte population or loss of the body weight | significantly decreased | inhibited | No noticeable toxicity | synergy | synergy | no noticeable loss |  |  |  |  |
| CC(C)(CO)CCCNC(=O)C1C(c2ccc(F)cc2)=NN(c2ccccc2)C1c1cccc(F)c1 (stereo not drawn) [Compound 6, 3-(4-fluoro-phenyl)-5-(3-fluoro-phenyl)-1-phenyl-4,5-dihydro-1H-pyrazole-4-carboxylic acid (5-hydroxy-4,4-dimethyl-pentyl)-amide] |  |  | significantly decreased | dramatically suppressed | No noticeable changes | No noticeable changes of leukocyte population or loss of the body weight |  | inhibited | No noticeable toxicity |  |  | no noticeable loss | synergy | synergy | synergy | synergy |
